# Experiments:
# CYP2c13 = target: T1, CYP2c13 (Rattus norvegicus, UniProt P20814); set-up: from tissue; host or cells: live male Sprague-Dawley rats (whole animal, mainly liver); conditions: in vivo
# T1 sequence (P20814 1-490): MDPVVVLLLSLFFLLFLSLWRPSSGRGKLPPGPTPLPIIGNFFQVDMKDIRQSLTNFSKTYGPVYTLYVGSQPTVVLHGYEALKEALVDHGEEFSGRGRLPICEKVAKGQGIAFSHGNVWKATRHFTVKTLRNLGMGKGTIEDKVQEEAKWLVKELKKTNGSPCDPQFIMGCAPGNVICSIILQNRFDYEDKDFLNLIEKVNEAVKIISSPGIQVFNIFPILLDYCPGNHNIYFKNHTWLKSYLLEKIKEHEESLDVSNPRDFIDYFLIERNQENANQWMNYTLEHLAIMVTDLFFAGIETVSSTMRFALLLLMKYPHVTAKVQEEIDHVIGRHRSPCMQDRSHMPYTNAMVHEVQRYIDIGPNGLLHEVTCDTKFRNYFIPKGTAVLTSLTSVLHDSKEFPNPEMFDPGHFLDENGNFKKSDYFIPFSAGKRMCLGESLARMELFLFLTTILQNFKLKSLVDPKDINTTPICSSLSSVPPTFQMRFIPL
# CYP2d2 = target: T2, CYP2d2 (Rattus norvegicus, UniProt P10634); set-up: from tissue; host or cells: live male Sprague-Dawley rats (whole animal, mainly liver); conditions: in vivo
# T2 sequence (P10634 1-500): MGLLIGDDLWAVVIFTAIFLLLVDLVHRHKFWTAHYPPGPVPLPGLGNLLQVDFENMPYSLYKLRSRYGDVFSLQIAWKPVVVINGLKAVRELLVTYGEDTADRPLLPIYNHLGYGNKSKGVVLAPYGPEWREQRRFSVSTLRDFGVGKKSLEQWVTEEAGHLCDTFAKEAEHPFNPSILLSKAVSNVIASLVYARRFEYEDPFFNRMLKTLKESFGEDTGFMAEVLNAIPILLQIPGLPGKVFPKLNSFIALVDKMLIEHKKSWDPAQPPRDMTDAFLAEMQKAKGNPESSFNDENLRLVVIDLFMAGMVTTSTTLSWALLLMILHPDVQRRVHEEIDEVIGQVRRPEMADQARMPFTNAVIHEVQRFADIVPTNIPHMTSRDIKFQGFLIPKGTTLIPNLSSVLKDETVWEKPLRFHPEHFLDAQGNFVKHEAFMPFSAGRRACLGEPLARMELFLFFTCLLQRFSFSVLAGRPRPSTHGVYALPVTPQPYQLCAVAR
# rat liver = assay type: in vivo; conditions: rats after final administration, H&E, Figure 7
# Method: After the final administration, all rats were euthanized, and blood and liver samples were collected. The levels of biochemical indicators ALT, AST and ALP in the blood were detected according to the kit instruction. The liver histopathology was analyzed by H&E staining. Briefly, liver tissues were fixed in 10% paraformaldehyde (for over 24 h, 4°C), paraffin-embedded, and sectioned into 5-µm slices). […]
# CYP2e1 = CYP2e1 (Rattus norvegicus, UniProt P05182); conditions: in vivo
# Method: The effect of the Zhicaowu–Hezi combination on CYP450 enzymes in rats was evaluated by examining the pharmacokinetics of theophylline (CYP1a2), metoprolol (CYP2d2), bupropion (CYP2b1), omeprazole (CYP2c13), chlorzoxazone (CYP2e1), testosterone (CYP3a1), and diclofenac (CYP2c11).
# The collected blood was placed in sodium heparin-treated centrifuge tubes and centrifuged at 4°C for 10 min at 3,000 RPM. […] After 10 min of sedimentation, the supernatant was extracted through a 0.22-μm microporous membrane, 20 μL of which was injected into HPLC. The pharmacokinetic parameters of each probe drug were calculated using the non-atrial compartment model in Drug and Statistics software (DAS, 3.0; Shanghai, China).
# CYP1a2 = target: T3, CYP1a2 (Rattus norvegicus, UniProt P04799); set-up: from tissue; host or cells: live male Sprague-Dawley rats (whole animal, mainly liver); conditions: in vivo
# T3 sequence (P04799 1-513): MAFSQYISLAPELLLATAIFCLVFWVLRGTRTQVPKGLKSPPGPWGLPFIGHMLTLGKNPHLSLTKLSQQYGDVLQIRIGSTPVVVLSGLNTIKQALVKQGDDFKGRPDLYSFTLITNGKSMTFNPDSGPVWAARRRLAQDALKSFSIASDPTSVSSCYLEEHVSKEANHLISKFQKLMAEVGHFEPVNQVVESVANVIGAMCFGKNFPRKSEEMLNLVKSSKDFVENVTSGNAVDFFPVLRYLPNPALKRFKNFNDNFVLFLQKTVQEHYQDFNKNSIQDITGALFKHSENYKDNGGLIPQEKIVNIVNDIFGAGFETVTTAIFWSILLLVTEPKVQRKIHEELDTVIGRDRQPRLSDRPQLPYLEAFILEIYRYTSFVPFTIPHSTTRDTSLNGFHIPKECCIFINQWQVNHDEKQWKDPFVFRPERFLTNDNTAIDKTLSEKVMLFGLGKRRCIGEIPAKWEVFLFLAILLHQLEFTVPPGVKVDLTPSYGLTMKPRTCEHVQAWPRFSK
# Chain of CYP2e1 (P05182 whole entry): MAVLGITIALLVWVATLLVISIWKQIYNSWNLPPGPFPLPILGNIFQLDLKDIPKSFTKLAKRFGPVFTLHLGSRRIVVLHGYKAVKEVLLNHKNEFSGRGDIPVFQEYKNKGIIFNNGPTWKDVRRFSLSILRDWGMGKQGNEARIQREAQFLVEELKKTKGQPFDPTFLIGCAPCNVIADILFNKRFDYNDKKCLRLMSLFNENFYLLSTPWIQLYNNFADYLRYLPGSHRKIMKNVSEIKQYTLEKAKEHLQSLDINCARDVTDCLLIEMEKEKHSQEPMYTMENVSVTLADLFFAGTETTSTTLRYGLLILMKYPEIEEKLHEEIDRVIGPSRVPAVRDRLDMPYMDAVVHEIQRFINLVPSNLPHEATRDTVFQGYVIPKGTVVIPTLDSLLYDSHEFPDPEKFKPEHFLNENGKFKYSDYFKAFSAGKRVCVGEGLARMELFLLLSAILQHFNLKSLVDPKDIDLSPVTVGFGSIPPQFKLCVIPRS
smiles,measurement,setting,value
"CCC1(c2ccccc2)C(=O)NC(=O)NC1=O [P, phenobarbital sodium]",omeprazole AUC(0-t),CYP2c13,3040 ± 177 ng·h/mL
same,omeprazole AUC(0-∞),CYP2c13,3187 ± 239 ng·h/mL
same,omeprazole CLz/F,CYP2c13,"3,028.688 ± 253.193 mL/h/kg"
same,omeprazole Cmax,CYP2c13,535 ± 63 ng/mL
same,omeprazole t1/2 z,CYP2c13,2.761 ± 0.227 h
same,metoprolol AUC(0-t),CYP2d2,3511 ± 445 ng·h/mL
same,metoprolol AUC(0-∞),CYP2d2,3623 ± 461 ng·h/mL
same,metoprolol CLz/F,CYP2d2,"2,495.074 ± 157.841 mL/h/kg"
same,metoprolol Cmax,CYP2d2,312 ± 41 ng/mL
same,metoprolol t1/2 z,CYP2d2,2.532 ± 0.221 h
same,liver histopathology finding,rat liver,Scattered cellular edema
same,chlorzoxazone AUC(0-t),CYP2e1,32754 ± 4037 ng·h/mL
same,chlorzoxazone AUC(0-∞),CYP2e1,47632 ± 6051 ng·h/mL
same,chlorzoxazone CLz/F,CYP2e1,13.4061 ± 1.1103 mL/min/kg
same,chlorzoxazone Cmax,CYP2e1,3543 ± 431 ng/mL
same,chlorzoxazone t1/2 z,CYP2e1,13.368 ± 1.308 h
same,theophylline AUC(0-t),CYP1a2,12257 ± 742 ng·h/mL
same,theophylline AUC(0-∞),CYP1a2,13565 ± 801 ng·h/mL
same,theophylline CLz/F,CYP1a2,"7,744.326 ± 56.253 mL/h/kg"
same,theophylline Cmax,CYP1a2,1138 ± 201 ng/mL
same,theophylline t1/2 z,CYP1a2,2.509 ± 0.436 h

# Source: PMC12301304 (Frontiers in Pharmacology, 2025)
